pKd, pKi: −log10 of the molar value.
Experiments:
[1] = biological target: recombinant tau proteins (human Tau, heparin-fiberized) (Homo sapiens, UniProt P10636); assay: Fluorescence quantitative Tau binding assay in vitro; conditions: 0.04 uM fiberized recombinant tau, 30 mM Tris pH 7.5, 1 h, fluorometric saturation curve
Protocol: Expression and Purification of Human Tau Protein
• pET41a-Tau wild type • One Shot® BL21(DE3) Chemically Competent E. coli (Invitrogen, C600003) • Kanamycin sulfate (Sangon Biotech, A506636) • IPTG (Sangon Biotech, A100487) • Pipes buffer (100 mM Pipes, pH6.8, 1 mM EGTA, 1 mM MgSO4) • Hepes buffer (25 mM Hepes, pH7.2, 0.1 mM EDTA, 0.5 mM DTT, 100 mM NaCl) • Q-Sepharose Fast Flow column (GE Healthcare, 17-0510-01) • SP-Sepharose Fast Flow column (GE Healthcare, 17-0729-01) Procedures: Protein Expression: • Step 1: Transform 1 uL expression plasmid pET41a-tau wt into one One Shot® BL21(DE3) Chemically Competent E. coli, on ice 30 min. • Step 2: 42° C. heat shock 90 second and on ice 2 min, 37° C. recovery for 30 min, Plate small amount on LB(Kan+) agar plate incubate overnight at 37° C. • Step 3: Pick and resuspend a single colony in 200 mL liquid culture with 50 ug/mL Kanamycin to produce a starter culture. Inoculate starter culture and shake 200 rpm overnight at 37° C. • Step 4: Add 100× dilution Starter into fresh culture medium (Kan+) shake 200 rpm at 37° C. until OD600=0.8. • Step 5: Add IPTG (final conc. 1 mM) and express protein for 3 hr. • Step 6: Collect cell pellet and store at −80° C. for purification. Protein Purification: • Step 1: Cell pellet was resuspended in Pipes buffer. • Step 2: Sonication and centrifugation (15,000 rpm, 15 min at 4° C. • Step 3: The supernatant was placed in a boiling water bath for 20 min and subsequently centrifuged. The heat-stable proteins in the supernatant were loaded onto a Q-Sepharose Fast Flow column (20 mL) • Step 4: The flow through containing tau was loaded onto SP-Sepharose Fast Flow column (10 mL), eluted with Pipes buffer containing 0.2M NaCl. • Step 6: Fractions containing tau were pooled, concentrated and dialyzed against Hepes buffer, stored at −80° C. • Step 7: Reload SP-Flow through into Q-Sepharose Fast Flow column (20 mL) and SP-Sepharose Fast Flow column (10 mL) again, eluted with Pipes buffer containing 0.2M NaCl. • Step 8: Fractions containing tau were pooled, concentrated and dialyzed against Hepes buffer, stored at −80° C. Repeat step 6-7 twice, Collect all above all elution product and concentrated. Biological Assays Fluorescence Quantitative Tau Binding Assay In Vitro
2 uM of recombinant tau proteins and 15 uM of heparin were fiberized in 30 mM Tris (pH 7.5) buffer by overnight incubation at 37° C. 0.04 uM of recombinant tau proteins which was diluted in 30 mM Tris buffer (pH 7.5) was then reacted with test compounds (containing 1% DMSO) for 1 h. Regarding the fluorometric data, the binding saturation curve was created and the parameter estimation method was conducted using Prism software (GraphPad). Kd values were determined for each of test compounds. Table A lists Kd values of exemplary test compounds.

[2] = test system: tau aggregates (tangles/threads) in temporal cortex sections of an AD brain; assay: Histological examination by fluorescence staining of AD brain sections; assay type: binding, human; conditions: 0.001% (W/V) compound in 50% ethanol, 30 min, relative to PBB3; for Fluorescent binding Tangle: score for tangles; for Fluorescent binding Thread: score for threads
Protocol: The fluorescence binding assessment was performed as reported previously^1. For fluorescence labeling with PBB3 and test compounds, deparaffinized temporal cortex sections of an AD brain were incubated in 50% ethanol containing 0.001% (W/V) of PBB3 or test compound at room temperature for 30 min. The samples were rinsed with 50% ethanol for 5 min, dipped into distilled water twice for 3 min, and mounted in non-fluorescent mounting media ([…]; Vector Laboratories). Fluorescence images were captured using a DM4000 microscope (Leica) equipped with a custom filter cube for PBB3 (excitation band-pass at 391-437 nm and suppression low-pass with 458 nm cutoff).

[3] = biological target: [11C]PBB3 binding sites (tau aggregates) in temporal cortex homogenates of an Alzheimer's disease patient (Homo sapiens, UniProt P10636); assay: Fluorescence competitive binding assay in vitro ([11C]PBB3 displacement in Alzheimer's disease temporal cortex homogenates); conditions: 5 nM [11C]PBB3, AD temporal cortex homogenate (100 μg tissue), 30 min, room temperature
Protocol: Fluorescence competitive binding assay in vitro was performed as reported previously1. Frozen tissues derived from the temporal cortex of an Alzheimer's disease patient was homogenized in 50 mM Tris-HCl buffer, pH 7.4, containing protease inhibitor cocktail (cOmplete™, EDTA-free; Roche), and stored at −80° C. pending analyses. To assay radioligand binding with homologous or heterologous blockade, these homogenates (100 μg tissue) were incubated with 5 nM [11C]PBB3 (molar radioactivity: 100-150 GBq/μmol) in the absence or presence of unlabeled PBB3 at varying concentrations ranging from 10-11-106 M in Tris-HCl buffer containing 10% ethanol, pH 7.4, for 30 min at room temperature. Non-specific binding of [11C]PBB3 was determined in the presence of 5×10^−7 M PBB3. Samples were run once only and specific radioligand binding was determined as pmol/g tissue. Inhibition constant (Ki) and percentage of displacement were determined by using non-linear regression to fit a concentration-binding plot to one-site and two-site binding models derived from the Cheng-Prusoff equation with GraphPad Prism version 6.0 (GraphPad Software), followed by F-test for model selection. In a one-site homologous blockade model, dissociation constant (Kd) was calculated from homologous competitive binding using this function: Kd=Ki=IC50−Radioligand
where IC50 and [Radioligand] stand for the concentration of the competitor inducing 50% inhibition and radioligand concentration, respectively. Experiments with [^11C]PBB3 and unlabeled PBB3 were performed in a dimly lit condition to avoid photoconversion of the compounds. Table B lists Ki values of exemplary test compounds.

recombinant tau proteins (human Tau, heparin-fiberized), sequence (P10636 whole entry): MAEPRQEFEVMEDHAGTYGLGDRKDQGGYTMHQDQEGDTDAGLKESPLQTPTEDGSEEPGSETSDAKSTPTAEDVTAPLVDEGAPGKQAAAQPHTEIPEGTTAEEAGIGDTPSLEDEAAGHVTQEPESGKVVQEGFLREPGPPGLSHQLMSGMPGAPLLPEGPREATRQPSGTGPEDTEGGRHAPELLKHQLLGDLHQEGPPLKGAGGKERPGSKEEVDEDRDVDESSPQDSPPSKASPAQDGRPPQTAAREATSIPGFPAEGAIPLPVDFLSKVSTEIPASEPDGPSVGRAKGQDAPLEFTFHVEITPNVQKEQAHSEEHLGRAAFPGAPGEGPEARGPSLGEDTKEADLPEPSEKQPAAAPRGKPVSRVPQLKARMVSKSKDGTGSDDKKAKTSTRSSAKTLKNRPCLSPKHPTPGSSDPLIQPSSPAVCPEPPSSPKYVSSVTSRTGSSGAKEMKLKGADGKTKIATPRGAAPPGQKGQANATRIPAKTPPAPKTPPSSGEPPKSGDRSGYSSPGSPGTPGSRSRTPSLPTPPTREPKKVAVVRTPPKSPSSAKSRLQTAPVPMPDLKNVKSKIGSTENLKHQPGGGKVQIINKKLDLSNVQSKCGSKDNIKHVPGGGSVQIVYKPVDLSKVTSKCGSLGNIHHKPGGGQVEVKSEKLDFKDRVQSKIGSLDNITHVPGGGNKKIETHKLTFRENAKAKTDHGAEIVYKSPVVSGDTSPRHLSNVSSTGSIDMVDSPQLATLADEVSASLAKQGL
[11C]PBB3 binding sites (tau aggregates) in temporal cortex homogenates of an Alzheimer's disease patient, sequence (P10636 623-695 limits assumed): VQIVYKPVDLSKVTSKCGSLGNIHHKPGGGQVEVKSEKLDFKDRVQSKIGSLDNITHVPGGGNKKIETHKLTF

`CNc1ccc(-c2cc(F)c(-c3cc4ccncc4[nH]3)cn2)cn1` [Compound R, 4-Fluoro-N-methyl-5-(1H-pyrrolo[2,3-c]pyridin-2-yl)-2,3′-bipyridin-6′-amine] was tested, and the pKd [1] was 5.74, the “Fluorescent binding Tangle” value [2] was 3/3 and the “Fluorescent binding Thread” value [2] was 3/3. The pKi [3] was 7.82.

With `CNc1ccc(-c2ccc(-c3cc4ccncc4[nH]3)nc2F)cn1` [Compound S, 5-[2-Fluoranyl-6-(1H-pyrrolo[2,3-c]pyridin-2-yl)pyridin-3-yl]-N-methyl-pyridin-2-amine] the pKd [1] was 6.03, the “Fluorescent binding Tangle” value [2] was 3/3 and the “Fluorescent binding Thread” value [2] was 3/3. It also gave a pKi [3] of 7.82.

With `CNc1ccc(-c2cnc(-c3cc4ccncc4[nH]3)cc2F)cn1` [Compound T, 5-[4-Fluoranyl-6-(1H-pyrrolo[2,3-c]pyridin-2-yl)pyridin-3-yl]-N-methyl-pyridin-2-amine] the pKd [1] was 5.60, the “Fluorescent binding Tangle” value [2] was 2.5/2.5 and the “Fluorescent binding Thread” value [2] was 2.5/2.5. For the same compound, the pKi [3] was 6.85.

For `CNc1ccc(-c2ccc(-c3nc4ccc(NCC(O)CF)cc4s3)nc2)cn1` (centres unmarked) [Compound V, 1-Fluoranyl-3-[[2-[5-[6-(methylamino)pyridin-3-yl]pyridin-2-yl]-1,3-benzothiazol-6-yl]amino]propan-2-ol], the pKd [1] was 5.45, the “Fluorescent binding Tangle” value [2] was 2.5/2.5 and the “Fluorescent binding Thread” value [2] was 2.5/2.5. It also gave a pKi [3] of 8.12.

In the case of `CNc1ncc(-c2cc(F)c(-c3nc4ccc(N)cc4s3)cn2)cn1` [Compound Z, 2-(4-Fluoro-6-(2-(methylamino)pyrimidin-5-yl)pyridin-3-yl)benzo[d]thiazol-6-amine], the pKd [1] was 5.84, the “Fluorescent binding Tangle” value [2] was 3/3 and the “Fluorescent binding Thread” value [2] was 3/3. For the same compound, the pKi [3] was 8.30.
